Data set [1] can be described thus: taste testing of synthetic compound versus plant extracts. The class given is in vivo. As to conditions: based on taste testing, compared with some comparable plant extracts. An excerpt:
Synthetic (2E,5Z,8E)-deca-2,6,8-trienoic acid N-isobutyl amide, being more pure than botanical sources, can be distinguished to some extent based on taste sensations. Synthetic (2E,5Z,8E)-deca-2,6,8-trienoic acid N-isobutyl amide can have a purity of at least about 90 percent. In some embodiments, synthetic (2E,5Z,8E)-deca-2,6,8-trienoic acid N-isobutyl amide can provide relatively higher mouth-moistening relative to tingling or heating/cooling sensations, compared to, for example, equivalent amounts of spilanthol in jambu. […] In one embodiment a combination of synthetic (2E,5Z,8E)-deca-2,6,8-trienoic acid N-isobutyl amide and a affinin plant extract is used. For example, within the given range of 75 to 300 ppm the affinin compound, the amount of affinin active provided by synthetic (2E,5Z,8E)-deca-2,6,8-trienoic acid N-isobutyl amide can vary from 20 to 80 wt. % and the amount of (2E,5Z,8E)-deca-2,6,8-trienoic acid N-isobutyl amide provided by plant extract of Heliopsis Longipes can vary from 80 to 20 wt. %.

A further data set is described as follows: water solubility. In kind it is physicochemical. The text has this:
In some embodiments, one or more ingredients may be encapsulated with an encapsulating material can also modify the release profile of the ingredient.

Consider `C/C=C/C=C\CC/C=C/C(=O)NCC(C)C` [affinin compound, (2E,5Z,8E)-deca-2,6,8-trienoic acid N-isobutyl amide], for which the “taste profile / tingling” value in data set [1] is “a cleaner profile and/or less tingling”. Also, in “water solubility”, the water solubility entry was “not water soluble”.

The values are drawn from US20140004223A1, “MOUTH-MOISTENING GUM COMPOSITIONS AND PRODUCTS CONTAINING THE SAME” (Three Parkway North, priority 2010, published 2014).
